Tests used:
Type in all cases: functional
Homo sapiens [1] = species: Homo sapiens; test: Platelets binding activity relative to heparin was evaluated by competitive binding assay using [3H]-labeled heparin at concentration 0.001 uM
Homo sapiens [2] = species: Homo sapiens; test: Platelets binding activity relative to heparin was evaluated by competitive binding assay using [3H]-labeled heparin at concentration ~400 uM
Homo sapiens [3] = species: Homo sapiens; test: Platelets binding activity relative to heparin was evaluated by competitive binding assay using [3H]-labeled heparin at concentration ~80 uM
Homo sapiens [4] = species: Homo sapiens; test: Platelets binding activity relative to heparin was evaluated by competitive binding assay using [3H]-labeled heparin at concentration ~1000 uM
Homo sapiens [5] = species: Homo sapiens; test: Platelets binding activity relative to heparin was evaluated by competitive binding assay using [3H]-labeled heparin at concentration ~1.2 uM
Homo sapiens [6] = species: Homo sapiens; test: Platelets binding activity relative to heparin was evaluated by competitive binding assay using [3H]-labeled heparin at concentration ~60 uM
Homo sapiens [7] = species: Homo sapiens; test: Platelets binding activity relative to heparin was evaluated by competitive binding assay using [3H]-labeled heparin at concentration ~1.9 uM
Homo sapiens [8] = species: Homo sapiens; test: Platelets binding activity relative to heparin was evaluated by competitive binding assay using [3H]-labeled heparin at concentration ~50 uM

Compound | Binding (Homo sapiens [1]) | Binding (Homo sapiens [2]) | Binding (Homo sapiens [3]) | Binding (Homo sapiens [4]) | Binding (Homo sapiens [5]) | Binding (Homo sapiens [6]) | Binding (Homo sapiens [7]) | Binding (Homo sapiens [8])
CO[C@H]1O[C@H](COS(=O)(=O)[O-])[C@@H](O[C@H]2O[C@H](C(=O)[O-])[C@@H](OC)[C@H](O)[C@H]2OS(=O)(=O)[O-])[C@H](O)[C@H]1NS(=O)(=O)[O-].[Na+].[Na+].[Na+].[Na+] | 115% | 96% | 97% | 97% | 96% |  |  | 
CO[C@H]1O[C@H](CO)[C@@H](O[C@H]2O[C@H](C(=O)[O-])[C@@H](OC3O[C@H](COS(=O)(=O)[O-])[C@@H](OC)[C@H](O)[C@H]3NS(=O)(=O)[O-])[C@H](O)[C@H]2OS(=O)(=O)[O-])[C@H](O)[C@H]1NS(=O)(=O)[O-].[Na+].[Na+].[Na+].[Na+].[Na+] (stereo not given in full) |  | 110% |  | 110% | 100% | 105% | 100% | 
CO[C@H]1O[C@H](COS(=O)(=O)[O-])[C@@H](O[C@H]2O[C@H](C(=O)[O-])[C@@H](O[C@H]3O[C@H](COS(=O)(=O)[O-])[C@@H](OC)[C@H](O)[C@H]3NS(=O)(=O)[O-])[C@H](O)[C@H]2OS(=O)(=O)[O-])[C@H](O)[C@H]1NS(=O)(=O)[O-].[Na+].[Na+].[Na+].[Na+].[Na+].[Na+] |  | 100% |  | 97% | 105% |  | 105% | 105%
CO[C@@H]1O[C@H](C(=O)[O-])[C@@H](O[C@H]2O[C@H](COS(=O)(=O)[O-])[C@@H](OC)[C@H](OS(=O)(=O)[O-])[C@H]2NS(=O)(=O)[O-])[C@H](O)[C@H]1OS(=O)(=O)[O-].[Na+].[Na+].[Na+].[Na+].[Na+] |  | 115% | 100% | 75% | 100% |  | 98% | 
